System: B16 melanoma
Assay: Treating melanoma-bearing mice with drug-loaded crosslinked nanoparticles
Format: in vivo, C57BL/6 black mice
Procedure: C57BL/6 black mice with body weight of about 18˜20 g, aged 4˜6 weeks were used in the experiment. The mice were weighed and equally grouped based on body weight, then 1×10^6 B16 melanoma cells were subcutaneously injected. After one week, when the size of the tumors was 30˜50 mm^3, the drug-loaded nanoparticles and free DOX were injected into the mice through tail veins at Day 0, 2, 4, 6, and 8, where the amount of DOX in drug-carrying nanoparticles was 10, 20, 30 mg/kg, […] From Day 0 to 15, the body weight of the mice in each group was weighed every day. The size of the tumor was precisely measured with Vernier scale, where the method for calculating the volume of tumors was: V=(L×W×H)/2, (where L was the length of the tumor, W was the width of the tumor, H was the thickness of the tumor). The survival of the mice was observed continuously till the 46th day.
FIG. 11 is a curve graph showing that the doxorubicin-loaded polymer PEG5k-b-PCDC2.8k crosslinked nanoparticles inhibit tumor growth on melanoma-bearing mice; FIG. 12 is a curve graph showing the change of body weight of the mice. FIG. 13 is a curve graph showing the survival of the mice.

With `COc1cccc2c1C(=O)c1c(O)c3c(c(O)c1C2=O)C[C@@](O)(C(=O)CO)C[C@@H]3O[C@H]1C[C@H](N)[C@H](O)[C@H](C)O1` [free DOX, doxorubicin] the body weight decrease (DOX group, in 7 days) was 23%, the “day of treatment on which all mice died” value (DOX group, printed as 30 mg/kg) was 10 days and the “toxic side effects on the mice” value (free DOX group) was “severe toxic side effect”.

Reference: patent US9796728B2, “Cyclic carbonate monomer containing double-sulfur five-membered ring functional group, and preparation method thereof” (BrightGene Bio-Medical Technology Co., Ltd., priority 2014, dated 2017)
